Assay results as given in ChEMBL document CHEMBL4834434, “Discovery of Novel and Potent N-Methyl-d-aspartate Receptor Positive Allosteric Modulators with Antidepressant-like Activity in Rodent Models” (J Med Chem, 2021).
The source made the active and inactive calls. No cut-off for these calls is given here.

Legend:
[1] = biological target: D(2) dopamine receptor (Homo sapiens) (UniProt P14416); assay: Displacement of [3H]-methylspiperone from human dopamine D2 receptor expressed in CHO cells incubated for 30 mins by liquid scintillation counting analysis; assay type: cell-based
Sequence of D(2) dopamine receptor (Homo sapiens) (P14416 whole entry): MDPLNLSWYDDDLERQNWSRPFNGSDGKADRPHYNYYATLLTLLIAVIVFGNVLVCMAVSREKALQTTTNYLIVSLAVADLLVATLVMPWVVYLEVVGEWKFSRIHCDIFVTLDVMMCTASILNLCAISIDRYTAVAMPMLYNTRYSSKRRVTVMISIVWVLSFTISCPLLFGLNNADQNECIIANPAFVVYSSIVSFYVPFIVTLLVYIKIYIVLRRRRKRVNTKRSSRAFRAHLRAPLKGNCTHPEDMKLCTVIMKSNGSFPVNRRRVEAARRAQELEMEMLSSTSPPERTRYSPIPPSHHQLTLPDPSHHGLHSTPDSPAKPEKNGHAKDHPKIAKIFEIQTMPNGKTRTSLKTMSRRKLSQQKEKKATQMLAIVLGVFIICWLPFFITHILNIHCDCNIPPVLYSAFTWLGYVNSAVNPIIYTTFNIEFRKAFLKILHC

[2] = Ratio of drug concentration in brain to plasma in ICR mouse at 3 mg/kg, iv measured at 0.5 hrs by LC-MS/MS analysis; assay type: ADME, organism-based; conditions: read-out: BPR
[3] = Drug concentration in ICR mouse brain at 3 mg/kg, iv measured at 0.5 hrs by LC-MS/MS analysis; assay type: ADME, organism-based; conditions: read-out: Ct
[4] = Half life in ICR mouse at 3 mg/kg, iv measured up to 24 hrs by HPLC-MS/MS analysis; assay type: ADME, organism-based; conditions: in vivo
[5] = Half life in Sprague-Dawley rat at 10 mg/kg, po measured up to 1280 mins by HPLC-MS/MS analysis; assay type: ADME, organism-based; conditions: in vivo
[6] = AUC (0 to t) in Sprague-Dawley rat at 10 mg/kg, po measured up to 1280 mins by HPLC-MS/MS analysis; assay type: ADME, organism-based; parameters: route oral, dose 10 mg/kg, time <=1280; conditions: in vivo
[7] = Oral bioavailability in Sprague-Dawley rat at 10 mg/kg measured up to 1280 mins by HPLC-MS/MS analysis; assay type: ADME, organism-based; conditions: in vivo
[8] = Half life in Sprague-Dawley rat at 3 mg/kg, iv measured up to 1280 mins by HPLC-MS/MS analysis; assay type: ADME, organism-based; conditions: in vivo
[9] = biological target: Sodium-dependent serotonin transporter (Homo sapiens) (UniProt P31645); assay: Displacement of [3H]-paroxetine from SERT (unknown origin); parameters: dose or concentration left out as unconfirmed
Sequence of Sodium-dependent serotonin transporter (Homo sapiens) (P31645 whole entry, looked up): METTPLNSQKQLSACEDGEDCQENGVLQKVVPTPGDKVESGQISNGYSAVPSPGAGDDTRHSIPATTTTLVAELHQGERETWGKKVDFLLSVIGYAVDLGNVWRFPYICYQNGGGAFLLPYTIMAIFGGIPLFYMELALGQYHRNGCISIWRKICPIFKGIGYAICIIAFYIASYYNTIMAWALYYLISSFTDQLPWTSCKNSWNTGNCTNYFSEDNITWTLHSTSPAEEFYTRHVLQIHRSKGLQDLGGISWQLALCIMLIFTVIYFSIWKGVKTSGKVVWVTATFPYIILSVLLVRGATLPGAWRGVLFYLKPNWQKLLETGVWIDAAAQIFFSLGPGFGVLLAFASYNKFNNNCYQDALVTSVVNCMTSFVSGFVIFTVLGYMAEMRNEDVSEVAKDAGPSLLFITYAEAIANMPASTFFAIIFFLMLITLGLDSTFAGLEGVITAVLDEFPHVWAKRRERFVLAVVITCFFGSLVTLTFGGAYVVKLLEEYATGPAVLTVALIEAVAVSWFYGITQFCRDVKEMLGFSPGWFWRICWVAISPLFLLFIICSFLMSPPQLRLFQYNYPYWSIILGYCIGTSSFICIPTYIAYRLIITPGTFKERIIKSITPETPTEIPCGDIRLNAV

[10] = Drug concentration in ICR mouse plasma at 10 mg/kg, po measured at 0.5 hrs by LC-MS/MS analysis; assay type: ADME, organism-based
[11] = biological target: 5-hydroxytryptamine receptor 6 (Homo sapiens) (UniProt P50406); assay: Displacement of [3H]-LSD from human 5HT6 incubated for 30 mins by liquid scintillation counting analysis
Sequence of 5-hydroxytryptamine receptor 6 (Homo sapiens) (P50406 whole entry): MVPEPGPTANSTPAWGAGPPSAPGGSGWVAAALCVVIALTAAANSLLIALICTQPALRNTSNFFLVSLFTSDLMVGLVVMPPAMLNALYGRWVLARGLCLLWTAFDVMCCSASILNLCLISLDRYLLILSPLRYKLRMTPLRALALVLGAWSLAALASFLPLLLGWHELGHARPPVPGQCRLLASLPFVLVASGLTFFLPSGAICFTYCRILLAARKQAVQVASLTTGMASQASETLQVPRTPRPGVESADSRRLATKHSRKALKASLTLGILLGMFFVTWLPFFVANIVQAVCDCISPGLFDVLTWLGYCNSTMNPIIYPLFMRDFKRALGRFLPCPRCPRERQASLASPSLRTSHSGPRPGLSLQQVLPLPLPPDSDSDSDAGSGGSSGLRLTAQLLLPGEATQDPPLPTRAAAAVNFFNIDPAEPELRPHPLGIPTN

[12] = Clearance in Sprague-Dawley rat at 3 mg/kg, iv measured up to 1280 mins by HPLC-MS/MS analysis; assay type: ADME, organism-based; conditions: in vivo
[13] = Cytotoxicity against human HEK293 cells assessed as cell growth inhibition at 60 uM measured after 48 hrs by CCK8 assay relative to control; assay type: cell-based
[14] = Acute toxicity in ip dosed ICR mouse assessed as lethal dose measured after 24 hrs; assay type: organism-based; conditions: in vivo
[15] = Drug concentration in Sprague-Dawley rat brain at 3 mg/kg, iv measured at 20 mins by LC-MS/MS analysis; assay type: ADME, organism-based; conditions: read-out: Ct
[16] = Cytotoxicity against human HEK293 cells assessed as cell growth inhibition at 120 uM measured after 48 hrs by CCK8 assay relative to control; assay type: cell-based
[17] = biological target: Sodium-dependent dopamine transporter (Rattus norvegicus) (UniProt P23977); assay: Displacement of [3H]-WIN35428 from rat striatum DAT; assay type: tissue-based
Sequence of Sodium-dependent dopamine transporter (Rattus norvegicus) (P23977 whole entry): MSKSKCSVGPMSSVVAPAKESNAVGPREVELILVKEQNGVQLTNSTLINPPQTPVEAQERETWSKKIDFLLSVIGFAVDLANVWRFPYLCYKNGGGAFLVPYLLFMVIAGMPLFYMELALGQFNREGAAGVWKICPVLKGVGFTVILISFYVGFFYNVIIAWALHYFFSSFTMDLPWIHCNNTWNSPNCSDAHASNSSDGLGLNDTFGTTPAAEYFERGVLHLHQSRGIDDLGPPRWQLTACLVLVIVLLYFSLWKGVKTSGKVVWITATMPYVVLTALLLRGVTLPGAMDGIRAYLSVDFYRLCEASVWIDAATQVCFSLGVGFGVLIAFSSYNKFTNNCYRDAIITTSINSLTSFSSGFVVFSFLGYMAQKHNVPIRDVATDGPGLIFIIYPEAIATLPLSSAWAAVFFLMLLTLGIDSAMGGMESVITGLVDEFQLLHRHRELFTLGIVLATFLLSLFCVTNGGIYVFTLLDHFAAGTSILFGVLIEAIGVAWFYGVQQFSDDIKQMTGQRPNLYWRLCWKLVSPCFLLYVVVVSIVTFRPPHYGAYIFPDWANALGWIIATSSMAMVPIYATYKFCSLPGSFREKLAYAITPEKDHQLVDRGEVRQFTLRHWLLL

[18] = Ratio of drug concentration in brain to plasma in ICR mouse at 10 mg/kg, po measured at 0.5 hrs by LC-MS/MS analysis; assay type: ADME, organism-based; conditions: read-out: BPR
[19] = […] in ICR mouse assessed as decrease in body weight at 30 mg/kg, po administered for 28 days; assay type: organism-based; conditions: in vivo, 672 h, time 28 day
[20] = biological target: D(3) dopamine receptor (Homo sapiens) (UniProt P35462); assay: Displacement of [3H]-methylspiperone from human dopamine D3 receptor expressed in CHO cells incubated for 60 mins by liquid scintillation counting analysis; assay type: cell-based
Sequence of D(3) dopamine receptor (Homo sapiens) (P35462 whole entry): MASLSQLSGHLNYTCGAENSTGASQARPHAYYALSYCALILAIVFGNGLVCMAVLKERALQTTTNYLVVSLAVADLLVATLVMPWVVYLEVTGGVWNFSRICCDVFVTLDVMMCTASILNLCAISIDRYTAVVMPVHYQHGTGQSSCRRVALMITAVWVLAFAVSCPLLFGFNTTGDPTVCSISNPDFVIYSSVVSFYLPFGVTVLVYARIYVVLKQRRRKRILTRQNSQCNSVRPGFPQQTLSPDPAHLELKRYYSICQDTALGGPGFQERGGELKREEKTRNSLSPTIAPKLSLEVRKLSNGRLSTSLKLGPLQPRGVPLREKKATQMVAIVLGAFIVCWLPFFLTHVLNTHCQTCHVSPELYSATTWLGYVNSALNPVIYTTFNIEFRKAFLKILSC

[21] = Ratio of drug concentration in brain to plasma in ICR mouse at 3 mg/kg, iv measured at 2 hrs by LC-MS/MS analysis; assay type: ADME, organism-based; conditions: read-out: BPR
[22] = Volume of distribution at steady state in Sprague-Dawley rat at 3 mg/kg, iv measured up to 1280 mins by HPLC-MS/MS analysis; assay type: ADME, organism-based; conditions: in vivo
[23] = Cytotoxicity against African green monkey Vero cells assessed as cell growth inhibition at 60 uM measured after 48 hrs by CCK8 assay relative to control; assay type: cell-based; conditions: chlorocebus sabaeus
[24] = Ratio of drug concentration in brain to plasma in ICR mouse at 10 mg/kg, po measured at 2 hrs by LC-MS/MS analysis; assay type: ADME, organism-based; conditions: read-out: BPR
[25] = Oral bioavailability in ICR mouse at 10 mg/kg measured up to 24 hrs by HPLC-MS/MS analysis; assay type: ADME, organism-based; conditions: in vivo
[26] = Cytotoxicity against mouse L929 cells assessed as cell growth inhibition at 60 uM measured after 48 hrs by CCK8 assay relative to control; assay type: cell-based
[27] = […] in ICR mouse assessed as body weight gain at 30 mg/kg, po administered for 28 days; assay type: organism-based; conditions: in vivo, 672 h, time 28 day
[28] = Half life in ICR mouse at 10 mg/kg, po measured up to 24 hrs by HPLC-MS/MS analysis; assay type: ADME, organism-based; conditions: in vivo
Mus musculus = assay: Antidepressant activity in ICR mouse assessed as decrease in immobility time at 30 mg/kg, ip measured after 26 mins by forced swim test; assay type: functional, organism-based
hERG (KCNH2) = hERG (KCNH2) (Homo sapiens, UniProt Q12809); assay: Inhibition of human ERG expressed in CHO cells at 100 uM with holding potential at -80 to -60 mV for 500s followed by raise in potential at +30 mV for 2 sec and subsequent repolarization to -60 mV for 2 sec by whole-cell patch clamp method relative to control; assay type: cell-based; conditions: CHO cells expressing human ERG
Sequence of hERG (KCNH2) (Q12809 whole entry): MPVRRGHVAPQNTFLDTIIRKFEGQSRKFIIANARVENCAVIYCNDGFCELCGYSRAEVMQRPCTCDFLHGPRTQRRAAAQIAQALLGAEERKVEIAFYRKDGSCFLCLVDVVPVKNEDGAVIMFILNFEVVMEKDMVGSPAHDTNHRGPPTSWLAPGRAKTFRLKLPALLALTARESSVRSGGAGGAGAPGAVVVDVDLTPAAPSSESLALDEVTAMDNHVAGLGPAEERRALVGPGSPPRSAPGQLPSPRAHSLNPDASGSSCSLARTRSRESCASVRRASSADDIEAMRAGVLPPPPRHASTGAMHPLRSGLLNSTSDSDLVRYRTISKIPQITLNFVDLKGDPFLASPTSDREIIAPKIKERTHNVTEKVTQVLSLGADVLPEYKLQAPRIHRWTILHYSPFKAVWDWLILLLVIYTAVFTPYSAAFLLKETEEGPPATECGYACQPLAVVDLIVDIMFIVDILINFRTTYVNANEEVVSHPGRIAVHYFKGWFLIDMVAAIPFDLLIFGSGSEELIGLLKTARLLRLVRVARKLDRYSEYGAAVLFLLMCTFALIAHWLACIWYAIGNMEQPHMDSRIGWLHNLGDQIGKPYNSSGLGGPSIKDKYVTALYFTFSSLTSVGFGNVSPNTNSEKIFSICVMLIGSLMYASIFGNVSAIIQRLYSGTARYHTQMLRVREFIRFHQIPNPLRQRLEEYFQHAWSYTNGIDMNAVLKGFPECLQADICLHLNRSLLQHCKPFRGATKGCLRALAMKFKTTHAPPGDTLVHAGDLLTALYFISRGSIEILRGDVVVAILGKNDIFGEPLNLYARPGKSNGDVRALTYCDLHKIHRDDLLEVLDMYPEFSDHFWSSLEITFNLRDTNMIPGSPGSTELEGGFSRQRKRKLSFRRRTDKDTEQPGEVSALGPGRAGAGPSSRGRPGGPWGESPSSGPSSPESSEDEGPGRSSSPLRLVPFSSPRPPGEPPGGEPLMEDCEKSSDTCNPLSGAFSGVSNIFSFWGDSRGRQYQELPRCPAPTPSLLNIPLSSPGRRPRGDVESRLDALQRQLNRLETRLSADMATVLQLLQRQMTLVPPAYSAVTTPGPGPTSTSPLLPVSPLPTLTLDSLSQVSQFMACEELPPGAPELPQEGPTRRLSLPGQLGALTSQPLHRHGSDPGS

[29] = Drug concentration in ICR mouse plasma at 3 mg/kg, iv measured at 0.5 hrs by LC-MS/MS analysis; assay type: ADME, organism-based
[30] = Drug concentration in Sprague-Dawley rat plasma at 3 mg/kg, iv measured at 80 mins by LC-MS/MS analysis; assay type: ADME, organism-based
[31] = Brain to blood partition coefficient of the compound; assay type: physicochemical, tissue-based; conditions: read-out: logBB (converted)
[32] = Effect on locomotor activity in ICR mouse assessed as hyperlocomotion at 10 mg/kg, ip measured after 90 mins; assay type: ADME, organism-based; conditions: in vivo, 1.5 h

## Cc1cc(C)n(Cc2ccc(C(=O)Nc3ccc(Cl)c(Cl)c3)s2)n1
[1]
  inhibition: inactive
[2]
  Kp at 0.5 h: 0.41
[3]
  concentration at 0.5 h: 160 ng/mL
[4]
  half-life: 2.8 h
[5]
  half-life: 1.13 h
[6]
  AUC(0-t) at 1280 min: 503 ng·h/mL
[7]
  bioavailability: 8.32%
[8]
  t1/2: 1.7 h
[9]
  inhibition: inactive
[10]
  concentration at 0.5 h: 760 ng/mL
[11]
  inhibition: inactive
[12]
  CL: 27.8 mL/min/kg
[13]
  inhibition at 48 h, 60 µM: -5.2%
[14]
  LD50 at 24 h: 1500 mg/kg
[15]
  concentration at 20 min: 2190 ng/g
[16]
  inhibition at 48 h, 120 µM: -14%
[17]
  inhibition: inactive
[18]
  Kp at 0.5 h: 0.37
[19]
  Activity: Toxic
[20]
  inhibition: inactive
[21]
  Kp at 2 h: 0.34
[22]
  Vdss: 1.27 L/kg
[23]
  inhibition at 48 h, 60 µM: 21.9%
[24]
  Kp at 2 h: 0.38
[25]
  bioavailability: 63.3%
[26]
  inhibition at 48 h, 60 µM: 0.5%
[27]
  Activity: Non-Toxic
[28]
  half-life: 2.9 h
Mus musculus
  Activity: Active
hERG (KCNH2)
  inhibition at 2 s, 100 µM: 45%
[29]
  concentration at 0.5 h: 389 ng/mL
[30]
  concentration at 1.333 h: 239 ng/mL
[31]
  Kp: 1.26
[32]
  Activity: Non-Toxic
